Where two headings read alike, the source gives them in different places.
Key:
[1] = AT1001-045 study: plasma migalastat bioavailability of 150 mg migalastat HCl capsule with caffeine and sweetener beverages relative to water; format: in vivo, human (healthy subjects); settings: for AUC0-t Ratio / AUC0-∞ Ratio / Cmax Ratio: percent scale; for Cmax / AUC(0-t) / AUC(0-inf) / Tmax / half-life: both sexes, human, plasma, po, 150 mg; for Cmax: read-out: Cmax GeoMean; for AUC(0-t): read-out: AUC0-t GeoMean; for AUC(0-inf): read-out: AUC0-∞ GeoMean; for Tmax: read-out: tmax Median; for half-life: read-out: t1/2 Mean (converted)
Method: The example describes the AT1001-045 study, which was an open-label study of the bioavailability, safety and tolerability of migalastat in combination with caffeine and sweeteners.
The primary objective was to evaluate plasma migalastat bioavailability of the 150 mg migalastat HCl capsule in a caffeinated beverage, a sucrose beverage, a combination caffeinated and sucrose beverage, an aspartame artificial sweetener beverage, and an acesulfame potassium artificial sweetener beverage relative to water in healthy subjects.
The primary endpoints were ANOVA comparisons of interest between each test treatment and reference treatment for Cmax, AUC0-t and AUC0-∞. The comparisons of interest were point estimate ratios and lower/upper 90% confidence intervals.
This was a single-center, single dose, randomized, open-label, 6-way crossover study. Each subject received a single oral dose of migalastat HCl 150 mg for each of 6 periods.
In randomized sequence, each subject received a 150 mg migalastat HCl capsule with a caffeinated beverage, a sucrose drink, a combination caffeinated and sucrose beverage, an aspartame artificial sweetener drink, an acesulfame potassium artificial sweetener drink, or water.
All study treatments were administered in the fasted condition (overnight+4 hours post-dose).
Each single dose administration was followed by a 72-hour PK sampling period which also served as the between-treatment washout interval.
Appropriate migalastat exposure ratios (Cmax and AUC) with corresponding 90% confidence intervals will be used to address the comparisons of interest: • Caffeine (test) vs. water (reference) • Sucrose (test) vs. water (reference) • Caffeine+Sucrose (test) vs. water (reference) • Aspartame (test) vs. water (reference) • Acesulfame K (test) vs. water (reference)
• Study Population: male and female healthy subjects 18 to 45 years of age. • Sample Size: 20 subjects balanced for gender. • Dose: A single 150 mg capsule of migalastat hydrochloride, provided as GALAFOLD®.
The following test treatments were prepared: • Caffeinated beverage: 8 oz of caffeinated tea; nothing added; administered warm (40 to 50 degrees C.) and consumed within 10 minutes • Sucrose drink: 8 oz sucrose solution prepared with 26 grams sucrose, chilled before drug administration, and consumed within 10 minutes • Equivalent to sucrose content in one 8 oz serving of cane sugar-containing Coca-Cola® • Caffeinated+Sucrose drink: 8 oz caffeinated/sucrose beverage, chilled before drug administration, and consumed within 10 minutes (e.g., Jolt®) • Aspartame: 8 oz aspartame solution prepared with 125 mg aspartame, chilled before drug administration, and consumed within 10 minutes • Equivalent to aspartame content in one 8 oz can of Diet Coke® • Acesulfame K: 8 oz acesulfame K solution prepared with 30 mg acesulfame K, chilled before drug administration, and consumed within 10 minutes • Equivalent to acesulfame K content in one 8 oz can of Diet Coke® or Coca-Cola® Zero Sugar

[2] = as above; format: in vivo, human (healthy subjects); settings: 280 mL of coffee containing approximately 190 mg caffeine at the time of dosing, compared to water
[3] = taken with food; cited from earlier work
[4] = Acesulfame K (test) vs. water (reference)
[5] = Aspartame (test) vs. water (reference)
[6] = Caffeine (test) vs. water (reference)
[7] = Caffeine + Sucrose (test) vs. water (reference)
[8] = Sucrose (test) vs. water (reference)
[9] = single oral 150 mg migalastat HCl capsule, fasted, with Acesulfame K drink
[10] = single oral 150 mg migalastat HCl capsule, fasted, with Aspartame drink
[11] = single oral 150 mg migalastat HCl capsule, fasted, with Caffeine + Sucrose drink
[12] = single oral 150 mg migalastat HCl capsule, fasted, with Caffeine beverage
[13] = single oral 150 mg migalastat HCl capsule, fasted, with Sucrose drink
[14] = single oral 150 mg migalastat HCl capsule, fasted, with water (reference)

SMILES: OC[C@H]1NC[C@H](O)[C@@H](O)[C@H]1O [migalastat, (2R,3S,4R,5S)-2-(hydroxymethyl) piperdine-3,4,5-triol]
- mean reduction in AUC0-∞ ([1]; 280 mL of coffee containing approximately 190 mg caffeine at the time of dosing, compared to water): 57%
- AUC0-t Ratio [1, 4]: 93.9
- AUC0-∞ Ratio [1, 4]: 96.1
- Cmax Ratio [1, 4]: 92.3
- AUC0-t Ratio [1, 5]: 104.9
- AUC0-∞ Ratio [1, 5]: 102.9
- Cmax Ratio [1, 5]: 103.3
- AUC0-t Ratio [1, 6]: 43.1
- AUC0-∞ Ratio [1, 6]: 45.8
- Cmax Ratio [1, 6]: 39.9
- AUC0-t Ratio [1, 7]: 46.9
- AUC0-∞ Ratio [1, 7]: 47.7
- Cmax Ratio [1, 7]: 45.9
- AUC0-t Ratio [1, 8]: 92.2
- AUC0-∞ Ratio [1, 8]: 91.8
- Cmax Ratio [1, 8]: 95.3
- Cmax ([1]; single oral 150 mg migalastat HCl capsule, fasted, healthy subjects, with water (reference)): 1330 ng/mL
- AUC(0-t) [1, 9]: 8120 ng·h/mL
- AUC(0-inf) [1, 9]: 8640 ng·h/mL
- Cmax [1, 9]: 1220 ng/mL
- Tmax [1, 9]: 4 h
- AUC(0-t) [1, 10]: 9080 ng·h/mL
- AUC(0-inf) [1, 10]: 9080 ng·h/mL
- Cmax [1, 10]: 1370 ng/mL
- half-life [1, 10]: 8.1 h
- Tmax [1, 10]: 4 h
- AUC(0-t) [1, 11]: 4050 ng·h/mL
- AUC(0-inf) [1, 11]: 4270 ng·h/mL
- Cmax [1, 11]: 611 ng/mL
- half-life [1, 11]: 8.8 h
- Tmax [1, 11]: 3 h
- AUC(0-t) [1, 12]: 3720 ng·h/mL
- AUC(0-inf) [1, 12]: 4100 ng·h/mL
- Cmax [1, 12]: 529 ng/mL
- half-life [1, 12]: 10.2 h
- Tmax [1, 12]: 3 h
- AUC(0-t) [1, 13]: 7960 ng·h/mL
- AUC(0-inf) [1, 13]: 8030 ng·h/mL
- Cmax [1, 13]: 1260 ng/mL
- half-life [1, 13]: 7.8 h
- Tmax [1, 13]: 3 h
- AUC(0-t) [1, 14]: 8620 ng·h/mL
- AUC(0-inf) [1, 14]: 8610 ng·h/mL
- half-life [1, 14]: 7.5 h
- Tmax [1, 14]: 4 h
- rate of absorption (tmax) effect ([1]; coffee or sweetened beverages in comparison to water): not affected
- AUC0-∞ GeoMean [1, 9]: 8621 ng·h/mL
- t1/2 Mean [1, 9]: 7.2 h
- AUC0-∞ GeoMean [1, 10]: 9043 ng·h/mL
- AUC0-∞ GeoMean [1, 13]: 8008 ng·h/mL
- AUC0-∞ GeoMean [1, 14]: 8570 ng·h/mL
- mean difference in AUC (decrease) ([1]; sucrose vs water): 8%
- bioequivalence to water (90% CI within 80% to 125%) ([1]; with acesulfame K): bioequivalent to water
- bioequivalence to water (90% CI within 80% to 125%) ([1]; with aspartame): bioequivalent to water
- bioequivalence to water (90% CI within 80% to 125%) ([1]; with sucrose): very close to bioequivalent
- mean reduction in Cmax [2]: 60%
- decrease in migalastat exposure [3]: approximately 40%
